Assay results as given in patent US20160113895A1, “Novel Use of Adapalene in Treating Esophageal Cancer and Gastrointestinal Stromal Tumor” (Biodelight Biotech Inc., priority 2013, published 2016).
*1 amine or outer side, *2 acyl side, *3 side chain or, on linkers, in order; H or OH if unused. Where a SMILES comes first, the peptide text is derived from it. Bridges are numbered along the chain shown (N, C = ends). Roman numbers before positions name the chains, in order. [ ]: non-standard residue; d: D form. Actinocin(9to1) = Cc1c2oc3c(C)ccc(C(=O)[*:1])c3nc-2c(C(=O)[*:2])c(N)c1=O; NMeV = CN[C@H](C(=O)O)C(C)C; Sar = CNCC(=O)O

Legend:
H460 [1] = test: 2D cell proliferation assay (Alamar Blue), H460; type: cell-based, human
Text: (§1) Nsl-8 was subjected to 2D cell proliferation assays using four NSCLC cell lines (A549 (human adenocarcinomic alveolar basal epithelial cells with k-ras gene mutation), H1299 (human non-small cell lung carcinoma cell line with p53 mutation), H460 (human non-small cell lung carcinoma cell line with k-ras gene mutation), and HCC827 (human NSCLC cells with EGFR mutation of deletion from E746 to A750)) and the results were presented in Table 2. There were eight concentrations used for each drug for determining its IC50. […]. Actinomycin D was a chemotherapeutic drug simply used as a quality control for all the experiments.
(§2) In the 2D cell proliferation assay, cells were cultured in DMEM containing 10% FCS and Penicillin/Streptomycin. For the assays, cells were seeded in 150 μL medium on a 96-well cell culture plate and incubated at 37° C. overnight before the compounds were added. Compounds were prepared as predilution which was 16 fold concentrated to the final assay concentration. A day after cell seeding, 10 μL of prediluted compounds was added to the cells (1:16 dilution). Treatment of cells with 0.1% DMSO or 1% DMSO (for the two top concentrations of nsl-8) and 1.0E-05 M Staurosporine was served as high control (100% viability) and low control (0% viability), respectively. Measurement of the impact of compounds on cell viability was performed as follows: 5000 cells (A549 and HCC827) or 2500 cells (H1299 and H460) were seeded in the inner wells of 96-well-plates in 150 μL complete medium. Next day, compounds were added to the medium to reach the final concentration and then incubated at 37° C. in 5% or 10% CO2 depending on the medium for 72 h. Subsequently 10 μL Alamar Blue reagent was added and fluorescence at 590 nm was measured after 5 h incubation at 37° C. in 5% CO2 using a fluorometer.
(§3) Raw data were converted into percent cell viability relative to high control (solvent 0.1% DMSO or 1% DMSO for the two top concentrations of drug nsl-8) and low control (1.0E-05 M Staurosporine), which were set to 100% and 0%, respectively.

A549 [2] = test: 2D cell proliferation assay (Alamar Blue), A549; type: cell-based, human; conditions: A549, 72 h
Text: as §1, §2, §3

A549 implanted tumors = test: Subcutaneous A549 xenograft model, groups 2a-2c, o.p.; conditions: for Tumor inhibition rate (%): A549, o.p. once daily, NSL-8 70 mpk, Tarceva 20 mpk
Description: The antitumor efficacy of the drug lead nsl-8 searched was studied using the subcutaneous xenografted A549 and HCC827 lung cancer tumor models in vivo. […] Mice were maintained in individual ventilated cages (IVC, max. 4 mice/cage) at constant temperature and humidity. Animal weights were determined three times (Monday, Wednesday and Friday) for groups 1a and 1b or two times (Monday and Thursday) for groups 2a-2c and 3a-3c animals. Animal behaviour was monitored daily.
On day 0, either 2×10^6 A549 or 2×10^6 HCC827 tumor cells in 100 μL PBS were implanted into the subcutaneous space of the left flank of all corresponding BALB/c nude and SCID mice, respectively. In the following, tumor sizes were determined by caliper measurement. Tumor sizes were calculated according to the formula W^2×Lg/2 (Lg=length and W=the perpendicular width of the tumor, L>W). On day 48 or 30, after mean tumor volumes had reached approx. 100 mm^3, the corresponding tumor-bearing animals were randomized into 2 groups of 8 (A549 model: groups 1a and 1b) or 10 animals (A549 model: groups 2a and 2b) according to tumor sizes. On day 24 or 28, after mean tumor volumes had reached approx. 100 mm^3, the corresponding tumor-bearing animals were randomized into 2 groups of 10 animals (HCC827 model: groups 3a and 3b) according to tumor sizes. […] The percentage of tumor growth inhibition (TGI) was calculated using the following formula: […]
where T and C represent the mean tumor volume of the treatment and the control group, respectively.
The solution was aliquoted into several 15 ml sterile centrifuge tubes in 650 μl quantity per tube and then stored frozen at −80° C. until use. […] Animals of group 1b received 40 mg/kg nsl-8 dosage solution once daily through i.p. route on days 48-52 and 62-66, while those of groups 2b and 3b received 70 mg/kg nsl-8 dosage solution once daily through o.p. route on days 1-14 (group 2b) and days 1-14 (group 3b), respectively (Table 4).
Groups 1a and 1b (A549 model) were terminated on day 69, while groups 2a-2c (A549 model) and 3a-3c (HCC827 model) were terminated on day 15. At necropsy, animals were killed by cervical dislocation. Primary tumor weights and volumes were determined. The tumor volume and weight were analysed using descriptive data analysis (Mean, SEM, Median). Statistical analysis of efficacy data was performed using the unpaired t-test. All the data analyses were performed using GraphPad Prism 5 from GraphPad Software, Inc., San Diego, USA.
The serum level of blood urea nitrogen (BUN) was measured for assessing the renal function while those of alanine aminotransferase (ALT) and aspartate aminotransferase (AST) were measured using Ektachem DT system (Johnson & Johnson Clinical Diagnostics) for assessing the liver function. The EDTA treated anticoagulated blood samples were also collected for making a complete peripheral blood count by using a Hematology Analyzer (Sysmex, XT-1800i).
For this study, 0.161 ml nsl-8 stock solution made in DMSO was mixed with 1.339 ml 0.9% w/v saline so that the volume of a final dosage solution prepared to feed an animal was 1.5 ml and containing 10% DMSO. Therefore, both administration routes and vehicles used in treating groups 2a-2b and 3a-3b animals were quite different from that used in treating groups 1a-1b animals.

H1299 [3] = test: 2D cell proliferation assay (Alamar Blue), H1299; type: cell-based, human
Text: as §1, §2, §3

A549 [4] = test: 3D cell proliferation assay (soft agar), A549; type: cell-based, human; conditions: 3D soft agar
Description: (§4) Drug nsl-8 was further subjected to a 3D cell proliferation assay for assessing its potential in inhibiting the growth of NSCLC tumors. The same four NSCLC cell lines used in 2D proliferation assays were grown in soft agar and the drug was added after the agar has solidified. The drug added cells were then incubated several days until colonies have formed in the solvent control. Subsequently, Alamar Blue which was a cell viability reagent was added and the corresponding fluorescence released was measured as an indirect quantification of colony growth in soft agar.
(§5) For each cell line, some 96 well culture plates were prepared. 100 μL of the soft agar bottom layer (0.6% final concentration in complete medium) was poured and left to solidify. 50 μL of the soft agar top layer (0.4% final concentration) containing the corresponding cells and cell number were then added on top, solidified and such 96 well plates were incubated overnight at 37° C. in 10% CO2. Next day, drugs were added at indicated final concentrations into the inner wells of the plate. Subsequently, the assays were incubated in cell culture incubators for the indicated period of time. Finally, the assays were developed using Alamar Blue and upon 3-5 h of incubation at 37 ° C. fluorescence intensity was determined (excitation: 560 nm, emission: 590 nm). […]

HCC827 [5] = test: 2D cell proliferation assay (Alamar Blue), HCC827; type: cell-based, human; conditions: HCC827, 72 h
Description: There were eight concentrations used for each drug for determining its IC50. […] Actinomycin D was a chemotherapeutic drug simply used as a quality control for all the experiments.
as §2, with “Compounds were prepared as predilution which was 16 fold concentrated to the final assay concentration.” left out, “h.” for “h. Subsequently 10 μL Alamar Blue reagent was added and fluorescence at 590 nm was measured after 5 h incubation at 37° C. in 5% CO2 using a fluorometer.”
as §3

HCC827 [6] = test: 3D cell proliferation assay (soft agar), HCC827; type: cell-based, human; conditions: 3D soft agar
Description: as §4, §5

H460 [7] = test: 3D cell proliferation assay (soft agar), H460; type: cell-based, human; conditions: 3D soft agar
Description: as §4, §5

H1299 [8] = test: 3D cell proliferation assay (soft agar), H1299; type: cell-based, human; conditions: 3D soft agar
Description: as §4, §5

In the case of `C#Cc1cccc(Nc2ncnc3cc(OCCOC)c(OCCOC)cc23)c1` [Erlotinib], the IC50 (H460 [1]; Homo sapiens, NCI-H460, 72 h) is reported as over 10000 nM, the IC50 (A549 [2]; Homo sapiens) is reported as over 10000 nM and the “cell counts of white blood cell, red blood cell, or platelet versus vehicle” value (A549 implanted tumors; A549 model, peripheral blood at end-point, nsl-8 70 mg/kg, Tarceva 20 mg/kg o.p.) is reported as “no significant difference”. For the same molecule, the “serum levels of BUN, ALT, and AST among treatment groups” value (A549 implanted tumors; A549 model, upon completion of the experiments) was “no significant difference”, the “Tumor inhibition rate (%)” value (A549 implanted tumors; Day 0) was 0% and the “Tumor inhibition rate (%)” value (A549 implanted tumors; Day 3) was −16.7%. The “Tumor inhibition rate (%)” value (A549 implanted tumors; Day 7) was −19.0%, the “Tumor inhibition rate (%)” value (A549 implanted tumors; Day 10) was −22.0% and the “Tumor inhibition rate (%)” value (A549 implanted tumors; Day 14) was −29.6%. The “inhibition in growth of A549 implanted tumors (in words)” value (A549 implanted tumors; group 2c, 20 mg/kg o.p. daily) was “no inhibition” and the IC50 (H1299 [3]; Homo sapiens, NCI-H1299, 72 h) was over 10000 nM.
For `Cc1c2oc3c(C)ccc(C(=O)N[C@@H]4C(=O)N[C@H](C(C)C)C(=O)N5CCC[C@H]5C(=O)N(C)CC(=O)N(C)[C@@H](C(C)C)C(=O)O[C@@H]4C)c3nc-2c(C(=O)N[C@@H]2C(=O)N[C@H](C(C)C)C(=O)N3CCC[C@H]3C(=O)N(C)CC(=O)N(C)[C@@H](C(C)C)C(=O)O[C@@H]2C)c(N)c1=O` [Actinomycin D] (I: T[dV]P[Sar][NMeV] / II: T[dV]P[Sar][NMeV]; ester I:1-I:C, II:1-II:C; linker I:N-II:N via Actinocin(9to1)), the IC50 (A549 [4]) was 0.84 nM, the IC50 (H460 [1]; 2D, H460, 72 h, read-out: IC50) was 0.42 nM and the IC50 (A549 [2]; 2D, read-out: IC50) was 0.92 nM. The IC50 (HCC827 [5]) was 12 nM, the IC50 (HCC827 [6]) was 0.24 nM and the IC50 (H460 [7]) was 0.67 nM. For the same molecule, the IC50 (H1299 [3]; 2D, H1299, 72 h, read-out: IC50) was 0.31 nM and the IC50 (H1299 [8]) was 0.82 nM.
